Laboratory results from PMC11032351, “Epigenetic modulation through BET bromodomain inhibitors as a novel therapeutic strategy for progranulin-deficient frontotemporal dementia” (Scientific Reports, 2024).
Where a SMILES comes first, the peptide text is derived from it. [ ]: non-standard residue; d: D form. ξ: configuration not given here. Aoe(9ξ) = N[C@@H](CCCCCC(=O)C1CO1)C(=O)O; dPip = O=C(O)[C@H]1CCCCN1

System: PGRN-Luc
Experiment: HMC3 PGRN-luciferase reporter assay
Type: cell-based, human
Conditions: HMC3 PGRN-Luc cells, 20 h
Description: HMC3 PGRN-Luc cells were trypsinized from confluent T-75 flasks and re-suspended in HMC-3 media at 150,000–200,000 cells/mL. 30 µL of cell suspension was then seeded onto each well of black, 384-well clear-bottom plates (Corning 3712) using the Multidrop Combi (Thermo Fisher). Cells were allowed to adhere to plates in the incubator at 37 °C/5% CO2 for 6–8 h. After 6–8 h, compounds were added to each well using the D300e (Tecan) compound dispenser, and all wells were DMSO-normalized (0.3%). Cells were allowed to incubate with compounds for indicated timeframes.
Plates were removed from the incubator and allowed to cool to RT. 15 µL of media was removed from each well using a multichannel pipette and added to separate Corning 3712 plates for a read of “secreted” PGRN. To both the media-containing plates as well as the cell-containing plates (with 15 µL media remaining) is then added 15 µL of active luminescence reagent (Thermo 18,636) which was generated according to manufacturer’s instructions. Plates were allowed to nutate at RT for 15 min prior to reading using the EnVision (PerkinElmer). For calculation of the internal PGRN-Luc signal, the secreted signal (15 µL media) was subtracted from the signal of the cell-containing plates (with 15 µL media remaining). For “total” PGRN-Luc signal, a sample of media was not aliquoted into a separate plate, and instead, 30 µL of active luminescence reagent was added directly to each well.
For the mivebresib and panobinostat time-course experiment, the above procedure was followed, with the exception that cells were seeded at 66,600 cells/mL in 30 µL media, and allowed to grow overnight prior to compound addition for the indicated timeframes.

Row | Molecule | enhancement of internal PGRN-Luc signal | enhancement of secreted PGRN-Luc signal
1 | CC(/C=C/C(=O)NO)=C\[C@@H](C)C(=O)c1ccc(N(C)C)cc1 [trichostatin A] | able to enhance both internal and secreted PGRN at sub-µM concentrations | able to enhance both internal and secreted PGRN at sub-µM concentrations
2 | O=C(CCCCC[C@@H]1NC(=O)[C@H]2CCCCN2C(=O)[C@H](Cc2ccccc2)NC(=O)[C@H](Cc2ccccc2)NC1=O)C1CO1 (stereo partly shown) [trapoxin A] (cyclo(FF[dPip][Aoe(9ξ)])) | able to enhance both internal and secreted PGRN at sub-µM concentrations | able to enhance both internal and secreted PGRN at sub-µM concentrations
3 | CC(=O)Nc1ccc(C(=O)Nc2ccccc2N)cc1 [CI-994] |  | either weakly or entirely unable to enhance secreted PGRN

System: PGRN protein levels
Experiment: PGRN quantification (Jess) in human NPCs
Type: cell-based
Conditions: 100 nM, 24 h
Description: PGRN capillary gel electrophoresis experiments were performed using Jess (Bio-Techne) and data were processed and analyzed using Compass for Simple Western software (version 6.0). Runs were conducted using EZ Standard Pack 1 12-230 kDa (Bio-Techne PS-ST01EZ-8), 12-230 kDa pre-filled plates (PS-PP03), 12-230 kDa separation module (SMW004), anti-rabbit HRP detection ([…]-001), and total protein detection modules (DM-TP01, biotin labeling reagent 042-973) according to the manufacturer's instructions, and with anti-PGRN primary (Abcam ab208777) diluted 1:50 in milk-free antibody dilution buffer (043-524). […] All intensity quantifications are normalized to the total protein assay quantification unless otherwise indicated. NPCs were cultured normally in 6-well plates as described previously. Upon reaching confluency, DMSO or MLN-4924 (Cayman #15,217, 10 mM stock in DMSO) were diluted 1:5000 into NPC media with growth factors. 1 mL of media was aspirated from the cell cultures, and 1 mL of MLN-4924 or DMSO dilutions were then added to respective wells (final well concentration: 1 μM MLN-4924 in select wells, 0.01% DMSO for all wells). Plates returned to the incubator. […] Plates returned to the incubator. After 4 h, to the indicated wells is directly added 1 μL 2 mM mivebresib (MedChem Express HY-100015) in DMSO for a final concentration of 1 μM, or 1 μL DMSO. All plates were returned to the incubator overnight. The next day, 24 h from the addition of mivebresib, plates were removed from the incubator, and all wells were washed with 2 mL PBS, and then lysed in 300 μL M-PER lysis buffer with protease inhibitors. Cells were allowed to lyse for 15 min at 4 °C with light nutation, and then lysate was transferred to a 1.5-mL Eppendorf tube which was then spun down at 20 k rcf at 4 °C for 10 min. 200 μL of supernatant was then transferred to a fresh, labeled Eppendorf rube, which was then stored at - 20 °C prior to further analysis. Sample concentration was quantified using the BCA assay as described above, and normalized to 250 μg/mL in M-PER lysis buffer prior to PGRN quantification using the Jess. NPCs were cultured normally as described previously. 6-well plates were seeded at 300,000 cells/well in 2 mL of NPC media with EGF, bFGF, and heparin as described above. Cells were allowed to grow to confluency for three nights at 37 °C with 5% CO2. […] These solutions were then diluted 1:10 in NPC media with growth factors containing 0.2% DMSO to make 100 nM compound solutions. Treatment wells were washed with 2 mL PBS prior to addition of 2 mL NPC media with growth factors containing compound (or DMSO only) at indicated concentrations (3 replicates per condition, 6 DMSO replicates). Plates were then allowed to incubate at 37 °C with 5% CO2 for 24 h. After 24 h, cells were removed from the incubator, washed with 1 mL PBS, and then lysed with 500 μL M-PER lysis buffer (Thermo Fisher #78,501) with 1 cOmplete Mini, EDTA-free protease inhibitor added (Sigma-Aldrich#11,836,170,001) per 15 mL lysis buffer. Plates were allowed to nutate at 4 °C for 15 min before transferring the lysate to 1.5 mL Eppendorf tubes, which were then spun down at 20,000 rcf at 4 °C for 10 min. 400 μL of the supernatant was then transferred to fresh 1.5-mL Eppendorf tubes, which were then frozen down at - 80 °C prior to further use. Samples were removed from the - 80 °C and concentrations were determined via BCA assay (Thermo Scientific #23,227) using a pre-diluted BSA standard (Life Technologies #23,208) on a 96-well polystyrene plate (Thermo Fisher #12,565,500). Samples were diluted to 0.25 mg/mL using M-PER lysis buffer prior to PGRN quantification using the Jess. NPCs were cultured as described above, and seeded onto coated 24-well plates at 150,000 cells/well in 1 mL NPC media with growth factors. Plates were allowed to grow to ~ 100% confluency for three nights at 37 °C with 5% CO2. […] Plates were allowed to incubate overnight at 37 °C with 5% CO2 for 24 h. […]

Row | Molecule | enhancement of PGRN protein levels
4 | COCc1nc2cnc3cc(-c4c(C)noc4C)c(OC[C@H]4CCNC4)cc3c2n1[C@H](C)c1ccccc1 [iBET-BD1] | unable to enhance PGRN protein levels
5 | CCNC(=O)c1cc2c(-c3cc(C(C)(C)O)ccc3Oc3c(C)cc(F)cc3C)cn(C)c(=O)c2[nH]1 [ABBV-744] | ~ 30%

Same assay, conditions: 24 h, various doses

Row | Molecule | PGRN protein levels, dose-response
6 | CCNC(=O)c1cc2c(-c3cc(C(C)(C)O)ccc3Oc3c(C)cc(F)cc3C)cn(C)c(=O)c2[nH]1 [ABBV-744] | mid to high nM concentrations were sufficient to enhance PGRN protein levels

System: GRN mRNA
Experiment: qPCR of GRN mRNA in human NPCs (enhancer screen and follow-up)
Type: cell-based
Conditions: human NPCs, 24 h, dose 1 µM, relative to DMSO
Description: All compounds were purchased from commercial vendors. All compounds were made at 1000 × stocks in DMSO (Sigma Aldrich #D2438), except for sodium valproate, which was dissolved in ddH2O. NPCs and neurons were generated and maintained as described above. For treatment, the stock compounds were diluted 1:1000 in NPC media (final DMSO concentration 0.1%), which was then applied to confluent NPCs or 18-day differentiated neurons derived from confluent NPC cultures for indicated time periods.
RNA was generated from each well of a 6-well treated plate of NPCs or neurons. First, media from each well was aspirated, and washed with 1 mL of dPBS. Wells were then lysed with 1 mL TRIzol Reagent (ThermoFisher #11,596,026). Wells were then incubated at room temperature for 5 min, and then RNA was extracted using the DirectZol RNA MiniPrep Kit (Zymo Research #R2052). RNA was stored at − 80 °C until further use. cDNA was generated using the High-Capacity cDNA synthesis Kit with RNase inhibitor (ThermoFisher #4,368,814) using 1000–1200 ng RNA per reaction. cDNA was either used immediately or stored at -20 °C until use, where it was then diluted 1:4 with DNase/RNase-free water (Invitrogen #10,977–015).
qPCR was conducted using the Roche 480 Light Cycler in a 384-well plate. To each well was added 5 μL of TaqMan 2X Gene Expression Master Mix (ThermoFisher #4,369,510), 0.5 μL of 20X TaqMan primer probe (ThermoFisher, GRN: Hs00963707_g1, GAPDH: Cat.#432924E), 0.5 μL of DNase/RNase-free H2O, and 4 μL of above diluted cDNA. Results were normalized to GAPDH, and replicate mean values and standard error of the mean are reported.

Row | Molecule | GRN Fold-change (Norm. to GAPDH) ± Std. Error
7 | COc1cc2nc(N3CCCN(C)CC3)nc(NC3CCN(Cc4ccccc4)CC3)c2cc1OC [BIX01294] | 0.80 ± 0.04
8 | CN(C)Cc1c(C(=O)NCCOc2ccc(C(=O)NO)cc2)oc2ccccc12 [PCI-24781] | 3.68 ± 0.27
9 | CCn1cc(-c2ccnc3[nH]c(-c4cccc(CN(C)C)c4)cc23)c(-c2ccc(NC(=O)N(C)C)cc2)n1 [GSK1070916] | 1.45 ± 0

Same assay, conditions: human NPCs, 24 h, dose 10 µM, relative to DMSO

Row | Molecule | GRN Fold-change (Norm. to GAPDH) ± Std. Error
10 | Cc1c(OCC(F)(F)F)ccnc1C[S+]([O-])c1nc2ccccc2[nH]1 (stereo not shown) [Lanosoprazole] | 1.37 ± 0.23
11 | O=C(Nc1c(Cl)cncc1Cl)c1ccc(OC(F)F)c(OCC2CC2)c1 [Roflumilast] | 1.01 ± 0.09
12 | N#CC[C@H](C1CCCC1)n1cc(-c2ncnc3[nH]ccc23)cn1 [Ruxolitinib] | 1.26 ± 0.04
13 | COC1CCC(C(=O)c2ccc3nc4c(cc3c2)CCCO4)CC1 (stereo not shown) [JNJ16259685] | 1.00 ± 0.10
14 | Cc1cc(C)c(CNC(=O)c2cc(-c3ccc(CN4CCOCC4)cc3)cc3c2cnn3C2CCCC2)c(=O)[nH]1 [EPZ005687] | 1.18 ± 0.10
15 | (-)-Eseroline fumarate | 1.10 ± 0
16 | O=C(NC1CC1)c1cc(-c2cccs2)on1 [Compound Z220650400] | 1.17 ± 0.10
17 | CCOC(=O)Nc1cc(-c2ccc(C)c(NS(C)(=O)=O)c2)nn2c(C)nnc12 [Bromosporine, bromosporine] | 3.44 ± 0.25
18 | O=C(CCCCCCNC(=O)c1cnc(N(c2ccccc2)c2ccccc2)nc1)NO [ACY-1215] | 3.63 ± 0.57
19 | Cc1c[nH]c(-c2cnc(NCCNc3ccc(C#N)cn3)nc2-c2ccc(Cl)cc2Cl)n1 [CHIR-99021] | 0.79 ± 0.06
20 | CCOC(=O)CCNc1cc(N2CCc3ccccc3CC2)nc(-c2ccccn2)n1 [GSK-J4] | 0.76 ± 0.03
21 | NNCCc1ccc(NC(=O)CCCc2ccccc2)cc1 [Bizine] | 0.92 ± 0.12
22 | c1ccc([C@@H]2C[C@H]2NC2CCNCC2)cc1 [GSK-LSD1] | 0.96 ± 0.11
23 | Cn1cc(-c2ccncc2)c(-c2ccc(OCc3ccc4ccccc4n3)cc2)n1 [PF-2545920] | 1.29 ± 0.16

Same assay, conditions: human NPCs, 24 h, dose 10 µM, relative to DMSO; listed as bromosporine

Row | Molecule | GRN Fold-change (Norm. to GAPDH) ± Std. Error
24 | CCOC(=O)Nc1cc(-c2ccc(C)c(NS(C)(=O)=O)c2)nn2c(C)nnc12 [Bromosporine, bromosporine] | active enhancers of GRN mRNA

Same assay, conditions: human NPCs, 24 h, dose 25 µM, relative to DMSO

Row | Molecule | GRN Fold-change (Norm. to GAPDH) ± Std. Error
25 | (-)-Eseroline fumarate | 0.79 ± 0.46
26 | CNC(=O)Oc1ccc2c(c1)[C@]1(C)CCN(C)[C@@H]1N2C [Eserine] | 0.73 ± 0.15
